Measured values taken from publication PMC6458995, “MAP4K4 Inhibition Promotes Survival of Human Stem Cell-Derived Cardiomyocytes and Reduces Infarct Size In Vivo” (Cell Stem Cell, 2019).

Experiments:
vCor.4U cells = experiment: Mitochondrial function (Seahorse XFe24, OCR and ECAR); format: cell-based, human; details: menadione 15 μM, 2 h
Description: Mitochondrial function in hiPSC-CMs was determined using a Seahorse XFe24 Analyzer. vCor.4U cells (60,000 well^-1) were transferred to 0.1% gelatin-coated XF24 plates and maintained for 5 d, as described above. On day 6, DMX-5804 was added 45 min prior to challenge with menadione for 2 h. The medium was replaced 1 hr before the assay, using bicarbonate-free Seahorse assay medium (8.3 g L^-1 DMEM Base (Sigma-Aldrich), 10 mM glucose, 2 mM L-alanyl-L-glutamine dipeptide (Glutamax-1, GIBCO), 1 mM sodium pyruvate (GIBCO), pH 7.4). Cells were maintained at 37°C without supplemental CO2 starting 1 hr before the assay (IL10 incubator, VWR). For each state measured, three assay cycles were performed (4 min mixing, 2 min wait, and 2 min measurement periods, with readings every 15 s). The basal oxygen consumption rate (OCR) and extracellular acidification rate (ECAR) were determined, followed by sequential injection of 1 μM oligomycin A (Abcam) to inhibit ATP synthase, 0.5 μM […] (FCCP; Abcam) to uncouple oxidative phosphorylation, and 1 μM antimycin A/rotenone (Sigma, Abcam) to inhibit mitochondrial complex III and I. For each condition, 12 wells were tested, comprising 4 independent experiments.

cardiac MAP4K4 = cardiac MAP4K4 (Mus musculus, UniProt P97820); experiment: Target engagement ex vivo (block to desthiobiotin-ATP binding); details: adult mouse cardiac lysates; versus F1386-0303
cardiac MAP4K4, sequence (P97820 2-310 limits assumed): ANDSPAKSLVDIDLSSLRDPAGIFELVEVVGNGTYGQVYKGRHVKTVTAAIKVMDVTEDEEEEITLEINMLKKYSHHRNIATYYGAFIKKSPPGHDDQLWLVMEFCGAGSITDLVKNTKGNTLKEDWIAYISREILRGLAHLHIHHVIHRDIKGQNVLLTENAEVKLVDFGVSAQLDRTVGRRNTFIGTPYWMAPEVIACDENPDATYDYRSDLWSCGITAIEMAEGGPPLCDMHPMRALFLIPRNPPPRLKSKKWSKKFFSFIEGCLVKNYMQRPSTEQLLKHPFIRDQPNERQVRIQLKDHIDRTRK
Description: Lysates were prepared and assayed using a desthiobiotin-ATP probe Kinase Enrichment Kit (Thermo Fisher Scientific) ([Patricelli et al., 2011]). In brief, tissue samples (100-120 mg) were cut into small pieces and resuspended in 1 mL of Lysis Buffer containing protease and phosphatase inhibitors. After homogenization (30 s on ice), the lysates were centrifuged (16,000 x g at 4°C for 10 min) and a buffer-exchange to Reaction Buffer was performed, to remove endogenous ATPs. Protein concentrations were measured by the BCA assay (Thermo Fisher Scientific). Compounds were added to 500 μL of lysate at 2 mg/ml in presence of 20 mM MgCl2 and incubated for 10 min at room temperature. The ActivX desthiobiotin-ATP probe (5 μM) was added, and samples were incubated for 10 min. Reactions were stopped by adding 500 μL of 8 M Urea/Lysis Buffer, and labeled kinases were captured by incubating samples with 60 μL of 50% Streptavidin-Agarose beads. Samples were incubated with constant inversion for 2 hr at room temperature. Samples were centrifuged (1000 x g for 1 min) and washed three times with 500 μL of 4 M Urea/Lysis Buffer. Captured kinases were eluted by boiling in 30 μL of Laemmli sample buffer for 15 min. Samples were analyzed by western blotting for MAP4K4 and for Src or p38 and were normalized to the capture of the untargeted control kinase.

VEGFR = experiment: HTRF Transcreener ADP kinase assay; format: biochemical, human
[1] = tested on: S. typhimurium TA98 and TA100; experiment: Ames genotoxicity reverse mutation assay
Description: Approximately 10^7 bacteria were exposed in triplicate to the test agent (six concentrations, 7.8-250 μg ml^-1), a vehicle control (vehicle) and a positive control for 90 min in low-histidine medium (sufficient for about 2 doublings.) The strains used were S. typhimurium TA98 (hisD3052, rfa, uvrB / pKM101; detects frameshift mutations) and TA100: hisG45, rfa, uvrB / pKM101; detects base-pair substitutions). The cultures were then diluted into indicator medium lacking histidine, dispensed into 384-well plates, and incubated for 48 hr at 37°C. The test was performed in the absence and presence of S9 metabolic activation, to identify pro-mutagens as well as directly acting mutagens. Only cells that underwent reversion grow, resulting in a color change. A two-fold increase over the vehicle control in the number of colonies indicates a positive response.

hNaV1.5 = molecular target: T1, hNaV1.5 (Homo sapiens, UniProt Q14524); experiment: Ion channel safety screening (Patchliner whole-cell patch clamp); format: cell-based
T1 construct: stably expressing full length hERG or hNaV1.5; host or cells: Chinese Hamster Ovary cell line
T1 sequence (Q14524 whole entry): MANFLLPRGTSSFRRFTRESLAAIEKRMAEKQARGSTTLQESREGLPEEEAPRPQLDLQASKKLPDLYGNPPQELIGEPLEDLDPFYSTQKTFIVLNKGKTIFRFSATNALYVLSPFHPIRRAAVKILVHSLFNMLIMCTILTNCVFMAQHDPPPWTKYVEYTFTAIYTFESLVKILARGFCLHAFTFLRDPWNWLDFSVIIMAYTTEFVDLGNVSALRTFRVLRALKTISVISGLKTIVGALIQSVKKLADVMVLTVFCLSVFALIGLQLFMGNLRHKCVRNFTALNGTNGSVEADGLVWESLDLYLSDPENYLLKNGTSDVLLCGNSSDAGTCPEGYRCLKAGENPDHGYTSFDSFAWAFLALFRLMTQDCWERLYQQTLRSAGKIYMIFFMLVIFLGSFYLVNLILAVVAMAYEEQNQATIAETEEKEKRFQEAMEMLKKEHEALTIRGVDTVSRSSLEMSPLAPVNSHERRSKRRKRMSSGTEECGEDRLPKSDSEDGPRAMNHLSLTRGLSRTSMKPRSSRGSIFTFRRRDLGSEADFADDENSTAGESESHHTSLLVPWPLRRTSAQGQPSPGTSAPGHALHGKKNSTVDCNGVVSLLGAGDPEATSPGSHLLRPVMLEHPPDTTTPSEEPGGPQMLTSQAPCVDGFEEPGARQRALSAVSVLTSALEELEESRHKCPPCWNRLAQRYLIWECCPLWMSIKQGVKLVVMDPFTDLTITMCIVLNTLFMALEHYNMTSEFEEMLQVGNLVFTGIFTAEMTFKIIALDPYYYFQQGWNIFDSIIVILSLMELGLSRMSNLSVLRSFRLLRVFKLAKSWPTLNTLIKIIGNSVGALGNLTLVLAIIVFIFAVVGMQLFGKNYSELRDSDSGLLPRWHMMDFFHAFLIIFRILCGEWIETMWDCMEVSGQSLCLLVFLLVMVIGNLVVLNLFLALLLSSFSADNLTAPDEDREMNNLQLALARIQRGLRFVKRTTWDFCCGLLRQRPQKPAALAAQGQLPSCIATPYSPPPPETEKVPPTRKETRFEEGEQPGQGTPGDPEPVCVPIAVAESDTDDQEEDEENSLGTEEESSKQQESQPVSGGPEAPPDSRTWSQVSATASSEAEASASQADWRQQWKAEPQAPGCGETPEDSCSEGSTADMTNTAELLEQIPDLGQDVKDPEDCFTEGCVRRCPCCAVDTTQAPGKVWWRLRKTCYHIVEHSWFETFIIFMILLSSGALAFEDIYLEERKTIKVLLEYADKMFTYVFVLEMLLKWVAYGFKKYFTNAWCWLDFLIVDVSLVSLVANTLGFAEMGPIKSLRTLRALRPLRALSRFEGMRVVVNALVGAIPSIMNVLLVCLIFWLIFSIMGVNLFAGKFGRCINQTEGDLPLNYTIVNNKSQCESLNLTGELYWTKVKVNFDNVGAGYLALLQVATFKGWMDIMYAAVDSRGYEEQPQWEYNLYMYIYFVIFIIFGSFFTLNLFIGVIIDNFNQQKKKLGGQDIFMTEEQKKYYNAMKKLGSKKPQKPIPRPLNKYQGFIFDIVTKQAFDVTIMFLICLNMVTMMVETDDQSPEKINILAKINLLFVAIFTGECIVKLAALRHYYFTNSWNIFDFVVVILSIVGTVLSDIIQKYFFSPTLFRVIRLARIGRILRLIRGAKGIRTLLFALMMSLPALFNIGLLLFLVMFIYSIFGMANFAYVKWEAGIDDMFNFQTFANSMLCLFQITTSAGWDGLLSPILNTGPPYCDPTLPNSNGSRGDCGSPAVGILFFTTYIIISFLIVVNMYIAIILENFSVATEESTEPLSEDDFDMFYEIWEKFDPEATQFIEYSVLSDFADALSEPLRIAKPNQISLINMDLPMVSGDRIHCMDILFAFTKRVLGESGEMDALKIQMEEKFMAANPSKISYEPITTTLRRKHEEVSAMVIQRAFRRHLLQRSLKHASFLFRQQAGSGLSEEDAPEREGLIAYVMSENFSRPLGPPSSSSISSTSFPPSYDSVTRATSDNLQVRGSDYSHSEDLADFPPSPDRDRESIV
Description: (§1) Electrophysiological recordings (Apconix) were performed using a Chinese Hamster Ovary cell line stably expressing full length hERG or hNaV1.5, or HEK293 cells stably expressing full length hCaV1.2. Single cell currents were measured in whole-cell configuration at 21-23°C using a Patchliner (Nanion Technologies). The internal solution for hERG contained (mM): 120 KF, 20 KCl, 10EGTA, 10 HEPES (pH 7.3). The internal solution for hNaV1.5 and CaV1.2 contained (mM): 140 CsF, 1 EGTA, 10 NaCl, 10 HEPES (pH 7.3). […] Late Na^+ currents were activated with 50 μM veratridine. Cells were clamped at a holding potential of −80 mV before a depolarising step appropriate for each channel. Currents measured from the step were referenced to the holding current. Compounds were then incubated for 2-3 min prior to a second measurement using an identical pulse train.

hERG = molecular target: T2, hERG (Homo sapiens, UniProt Q12809); experiment: as above; format: cell-based
T2 construct: stably expressing full length hERG; host or cells: Chinese Hamster Ovary cell line
T2 sequence (Q12809 whole entry): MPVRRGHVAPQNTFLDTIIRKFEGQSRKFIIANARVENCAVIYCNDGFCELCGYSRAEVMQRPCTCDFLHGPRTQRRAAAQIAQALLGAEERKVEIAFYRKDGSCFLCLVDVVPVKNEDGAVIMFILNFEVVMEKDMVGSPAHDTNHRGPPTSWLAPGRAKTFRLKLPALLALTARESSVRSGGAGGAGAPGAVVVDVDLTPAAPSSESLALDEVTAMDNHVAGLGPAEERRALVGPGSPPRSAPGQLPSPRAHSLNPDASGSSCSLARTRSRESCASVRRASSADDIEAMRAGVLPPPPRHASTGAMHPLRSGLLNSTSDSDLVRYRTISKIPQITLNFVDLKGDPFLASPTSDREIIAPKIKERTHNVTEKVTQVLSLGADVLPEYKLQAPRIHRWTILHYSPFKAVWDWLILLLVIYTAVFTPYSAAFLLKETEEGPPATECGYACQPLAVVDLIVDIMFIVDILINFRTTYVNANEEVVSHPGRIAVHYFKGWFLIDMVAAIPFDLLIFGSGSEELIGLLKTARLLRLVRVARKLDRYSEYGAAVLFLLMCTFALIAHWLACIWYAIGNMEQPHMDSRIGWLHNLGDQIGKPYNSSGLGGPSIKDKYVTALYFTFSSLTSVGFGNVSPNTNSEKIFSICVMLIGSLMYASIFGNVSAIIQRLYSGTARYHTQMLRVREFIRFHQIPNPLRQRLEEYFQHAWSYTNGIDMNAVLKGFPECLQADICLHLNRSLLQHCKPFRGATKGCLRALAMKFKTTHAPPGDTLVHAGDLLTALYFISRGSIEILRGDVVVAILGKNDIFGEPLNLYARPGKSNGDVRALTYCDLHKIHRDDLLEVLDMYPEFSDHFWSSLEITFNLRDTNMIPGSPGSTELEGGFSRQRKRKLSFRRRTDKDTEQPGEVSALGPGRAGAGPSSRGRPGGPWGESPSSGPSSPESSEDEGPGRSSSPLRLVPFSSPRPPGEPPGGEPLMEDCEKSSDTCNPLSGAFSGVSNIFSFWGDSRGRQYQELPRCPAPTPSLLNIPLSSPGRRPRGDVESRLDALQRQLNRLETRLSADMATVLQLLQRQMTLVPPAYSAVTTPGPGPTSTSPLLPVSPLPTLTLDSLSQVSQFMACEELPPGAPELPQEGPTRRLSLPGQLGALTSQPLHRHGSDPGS
Description: as §1

hCaV1.2 = molecular target: T3, hCaV1.2 (Homo sapiens, UniProt Q13936); experiment: as above; format: cell-based
T3 construct: HEK293 cells stably expressing full length hCaV1.2; host or cells: HEK293
Description: as §1

141 human kinases = experiment: Kinase selectivity profiling, Dundee Premier Screen, whole panel; format: biochemical; details: number of kinases; compounds at 1 μM
Description: Kinase selectivity profiling was performed by the International Centre for Kinase Profiling, MRC Protein Phosphorylation and Ubiquitylation Unit (141 kinases; Premier Screen, http://www.kinase-screen.mrc.ac.uk), using a [γ-^33P]ATP filter binding assay ([Bain et al., 2007]). Compounds were screened at 1 μM. For key hits, pIC50 values were then determined by HTRF as above. More complete kinome profiling was performed by Reaction Biology (376 kinases). Stability in mouse and human liver microsomes was determined by Cyprotex.

SMILES	extracellular acidification rate (vCor.4U cells; 10 μM)	improvement of residual maximum oxidative capacity (vCor.4U cells; 10 μM)	maximum oxidative capacity at lesser concentrations (vCor.4U cells; below 10 μM)	greater affinity over the earlier compound (target engagement ex vivo) (cardiac MAP4K4)	Fold Selectivity (VEGFR; VEGFR versus MAP4K4)	pIC50 (VEGFR; VEGFR, HTRF Transcreener ADP assay)	DMX-5804 vs F1386-0303 (VEGFR; ratio of fold selectivity, VEGFR)	Ames test of mutagenic potential [1]	off-target effect (hNaV1.5; cloned human hNaV1.5)	IC50 (hNaV1.5; hNaV1.5, CHO cells, 4-parameter logistic fit)	off-target effect (hERG; cloned human hERG)	IC50 (hERG; hERG, CHO cells, 4-parameter logistic fit)	off-target effect (hCaV1.2; cloned human hCaV1.2)	IC50 (hCaV1.2; hCaV1.2, HEK cells, 4-parameter logistic fit)	off-target effects among 141 human kinases (141 human kinases)
COCCOc1ccc(-c2cn(-c3ccccc3)c3nc[nH]c(=O)c23)cc1 [DMX-5804, 5-[4-(2-methoxy-ethoxy)-phenyl]-7-phenyl-3,7-dihydro-pyrrolo[2,3-d]pyrimidin-4-one]	partially rescued	5 fold	No significant benefits	10 ×	675	5.72	12.27	no off-target effect	no off-target effect	> 30 µM	no off-target effect	> 30 µM	no off-target effect	> 30 µM	–
Oc1ncnc2c1c(-c1ccccc1)cn2-c1ccccc1 [F1386-0303, 5,7-diphenyl-7H-pyrrolo[2,3-d]pyrimidin-4-ol]	–	–	–	–	–	–	–	–	–	–	–	–	–	–	5
